Converted amounts (≈) assume the structure as drawn.
Tests used:
[1] = system: Human immunodeficiency virus 1; assay: Antiviral activity against HIV-1 infected in FlpIn-HEK293 cells assessed as maximal activation of long terminal repeat driven gene expression at 1.3 uM incubated for 48 hrs by luciferase based cellular assay relative to control; assay type: functional
[2] = system: Human immunodeficiency virus 1; assay: Antiviral activity against HIV-1 infected in J-Lat 10.6 cells assessed as maximal activation of long terminal repeat driven gene expression incubated for 48 hrs by green fluorescent protein based cellular assay; assay type: functional, organism-based; conditions: Human immunodeficiency virus 1, J-Lat 10.6, 48 h
[3] = system: Human immunodeficiency virus 1; assay: Antiviral activity against HIV-1 infected in J-Lat 10.6 cells assessed as maximal activation of long terminal repeat driven gene expression at 20 uM incubated for 48 hrs by green fluorescent protein based cellular assay relative to control; assay type: functional
[4] = system: Human immunodeficiency virus 1; assay: Antiviral activity against HIV-1 infected in FlpIn-HEK293 cells assessed as activation of long terminal repeat driven gene expression incubated for 72 hrs by luciferase based cellular assay; assay type: functional, organism-based; conditions: Human immunodeficiency virus 1, HEK293, 72 h
Cytomegalovirus = assay: Antiviral activity against CMV infected in FlpIn-HEK293 cells assessed as click beetle green reporter driven gene expression incubated for 72 hrs by luciferase based cellular assay; assay type: functional, organism-based; conditions: HEK293, 72 h
[5] = Aqueous solubility of compound at pH 2 by nephelometry; assay type: physicochemical
[6] = Aqueous solubility of compound at pH 6.5 by nephelometry; assay type: physicochemical
[7] = Metabolic stability in mouse liver microsomes assessed as half life at 1 uM measured upto 60 mins by LC-MS anlaysis; assay type: ADME, Microsome
[8] = Metabolic stability in mouse liver microsomes assessed as intrinsic clearance at 1 uM measured upto 60 mins by LC-MS anlaysis; assay type: ADME, Microsome; conditions: read-out: CLH
[9] = system: Human immunodeficiency virus 1; assay: Antiviral activity against HIV-1 infected in FlpIn-HEK293 cells assessed as maximal activation of long terminal repeat driven gene expression at 0.31 uM incubated for 48 hrs by luciferase based cellular assay relative to control; assay type: functional
[10] = system: Human immunodeficiency virus 1; assay: Antiviral activity against HIV-1 infected in J-Lat 10.6 cells assessed as maximal activation of long terminal repeat driven gene expression at 2 uM incubated for 48 hrs by green fluorescent protein based cellular assay relative to control; assay type: functional
[11] = Cytotoxicity against human HepG2 cells assessed as growth incubation incubated for 48 hrs by cell titer glo assay; assay type: cell-based
[12] = system: Human immunodeficiency virus 1; assay: Antiviral activity against HIV-1 infected in FlpIn-HEK293 cells assessed as maximal activation of long terminal repeat driven gene expression at 0.09 uM incubated for 48 hrs by luciferase based cellular assay relative to control; assay type: functional
[13] = system: Human immunodeficiency virus 1; assay: Antiviral activity against HIV-1 infected in J-Lat 10.6 cells assessed as maximal activation of long terminal repeat driven gene expression at 0.06 uM incubated for 48 hrs by green fluorescent protein based cellular assay relative to control; assay type: functional
[14] = system: Human immunodeficiency virus 1; assay: Antiviral activity against HIV-1 infected in FlpIn-HEK293 cells assessed as maximal activation of long terminal repeat driven gene expression at 0.16 uM incubated for 48 hrs by luciferase based cellular assay relative to control; assay type: functional
[15] = system: Human immunodeficiency virus 1; assay: Antiviral activity against HIV-1 infected in J-Lat 10.6 cells assessed as maximal activation of long terminal repeat driven gene expression at 0.25 uM incubated for 48 hrs by green fluorescent protein based cellular assay relative to control; assay type: functional
[16] = system: Human immunodeficiency virus 1; assay: Antiviral activity against HIV-1 infected in FlpIn-HEK293 cells assessed as maximal activation of long terminal repeat driven gene expression at 0.63 uM incubated for 48 hrs by luciferase based cellular assay relative to control; assay type: functional
[17] = Metabolic stability in human liver microsomes assessed as half life at 1 uM measured upto 60 mins by LC-MS anlaysis; assay type: ADME, Microsome
[18] = Metabolic stability in human liver microsomes assessed as intrinsic clearance at 1 uM measured upto 60 mins by LC-MS analysis; assay type: ADME, Microsome; conditions: read-out: CLH
[19] = system: Human immunodeficiency virus 1; assay: Antiviral activity against HIV-1 infected in FlpIn-HEK293 cells assessed as maximal activation of long terminal repeat driven gene expression at 5 uM incubated for 48 hrs by luciferase based cellular assay relative to control; assay type: functional
[20] = system: Human immunodeficiency virus 1; assay: Antiviral activity against HIV-1 infected in J-Lat 10.6 cells assessed as maximal activation of long terminal repeat driven gene expression at 1 uM incubated for 48 hrs by green fluorescent protein based cellular assay relative to control; assay type: functional
[21] = system: Human immunodeficiency virus 1; assay: Antiviral activity against HIV-1 infected in FlpIn-HEK293 cells assessed as maximal activation of long terminal repeat driven gene expression at 0.25 uM incubated for 48 hrs by luciferase based cellular assay relative to control; assay type: functional
[22] = target: Cyclin-dependent kinase 9 (Homo sapiens) (UniProt P50750); assay: Inhibition of CDK9 (unknown origin) at 0.5 uM
Cyclin-K (Homo sapiens) = target: T1, Cyclin-K (Homo sapiens) (UniProt O75909); assay: Inhibition of cyclin K (unknown origin) at 0.5 uM
T1 sequence (whole entry): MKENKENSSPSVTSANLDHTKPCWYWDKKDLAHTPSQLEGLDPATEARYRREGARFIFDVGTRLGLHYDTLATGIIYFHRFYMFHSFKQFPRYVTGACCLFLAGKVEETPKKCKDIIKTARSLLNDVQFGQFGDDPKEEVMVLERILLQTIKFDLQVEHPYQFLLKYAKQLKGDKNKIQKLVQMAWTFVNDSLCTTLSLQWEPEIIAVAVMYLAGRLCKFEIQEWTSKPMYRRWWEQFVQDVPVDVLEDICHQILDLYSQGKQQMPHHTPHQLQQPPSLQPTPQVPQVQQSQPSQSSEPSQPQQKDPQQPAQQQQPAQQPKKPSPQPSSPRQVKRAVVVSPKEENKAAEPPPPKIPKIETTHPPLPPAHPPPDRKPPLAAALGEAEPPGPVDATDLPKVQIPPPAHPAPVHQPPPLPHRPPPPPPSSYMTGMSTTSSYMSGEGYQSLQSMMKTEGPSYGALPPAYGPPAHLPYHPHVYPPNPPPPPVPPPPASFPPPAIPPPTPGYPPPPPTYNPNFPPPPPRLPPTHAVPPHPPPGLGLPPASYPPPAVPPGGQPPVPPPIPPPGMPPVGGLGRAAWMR

Cyclin-T1 (Homo sapiens) = Cyclin-T1 (Homo sapiens) (UniProt O60563); assay: Inhibition of cyclin T1 (unknown origin) at 0.5 uM
Cyclin-T2 (Homo sapiens) = Cyclin-T2 (Homo sapiens) (UniProt O60583); assay: Inhibition of cyclin T2 (unknown origin) at 0.5 uM
[23] = system: Human immunodeficiency virus 1; assay: Antiviral activity against HIV-1 infected in FlpIn-HEK293 cells assessed as maximal activation of long terminal repeat driven gene expression at 0.13 uM incubated for 48 hrs by luciferase based cellular assay relative to control; assay type: functional
[24] = system: Human immunodeficiency virus 1; assay: Antiviral activity against HIV-1 infected in J-Lat 10.6 cells assessed as maximal activation of long terminal repeat driven gene expression at 0.13 uM incubated for 48 hrs by green fluorescent protein based cellular assay relative to control; assay type: functional

Chain of Cyclin-dependent kinase 9 (Homo sapiens) (P50750 whole entry): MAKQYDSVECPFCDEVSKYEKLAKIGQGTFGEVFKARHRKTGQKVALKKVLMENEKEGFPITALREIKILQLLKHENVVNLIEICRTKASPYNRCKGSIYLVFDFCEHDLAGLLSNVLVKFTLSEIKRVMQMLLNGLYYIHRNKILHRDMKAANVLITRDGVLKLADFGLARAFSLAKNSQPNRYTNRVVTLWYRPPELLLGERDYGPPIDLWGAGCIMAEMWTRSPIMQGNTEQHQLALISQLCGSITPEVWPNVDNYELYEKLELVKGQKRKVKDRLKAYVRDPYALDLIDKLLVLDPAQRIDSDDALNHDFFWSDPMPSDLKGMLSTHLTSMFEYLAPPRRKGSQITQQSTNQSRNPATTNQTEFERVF
Chain of Cyclin-T1 (Homo sapiens) (O60563 whole entry): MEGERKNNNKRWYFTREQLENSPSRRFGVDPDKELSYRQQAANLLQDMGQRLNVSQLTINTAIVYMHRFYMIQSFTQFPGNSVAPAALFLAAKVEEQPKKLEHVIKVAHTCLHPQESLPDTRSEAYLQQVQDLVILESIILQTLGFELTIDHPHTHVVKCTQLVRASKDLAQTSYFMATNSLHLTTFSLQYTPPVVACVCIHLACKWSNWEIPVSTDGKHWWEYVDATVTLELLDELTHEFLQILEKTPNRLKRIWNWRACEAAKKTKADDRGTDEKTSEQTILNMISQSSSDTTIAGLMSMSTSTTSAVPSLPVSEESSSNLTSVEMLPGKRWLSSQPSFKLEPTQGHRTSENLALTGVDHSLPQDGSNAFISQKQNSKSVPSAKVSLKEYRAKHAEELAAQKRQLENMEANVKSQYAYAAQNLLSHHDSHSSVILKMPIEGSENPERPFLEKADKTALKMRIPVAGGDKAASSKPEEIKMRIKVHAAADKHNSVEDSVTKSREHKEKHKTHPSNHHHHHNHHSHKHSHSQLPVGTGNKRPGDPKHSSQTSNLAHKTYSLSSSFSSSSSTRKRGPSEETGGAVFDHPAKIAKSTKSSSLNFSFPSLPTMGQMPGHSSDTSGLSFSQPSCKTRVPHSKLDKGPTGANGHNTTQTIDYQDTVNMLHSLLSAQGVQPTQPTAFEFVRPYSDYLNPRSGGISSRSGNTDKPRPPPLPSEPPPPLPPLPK
Chain of Cyclin-T2 (Homo sapiens) (O60583 whole entry): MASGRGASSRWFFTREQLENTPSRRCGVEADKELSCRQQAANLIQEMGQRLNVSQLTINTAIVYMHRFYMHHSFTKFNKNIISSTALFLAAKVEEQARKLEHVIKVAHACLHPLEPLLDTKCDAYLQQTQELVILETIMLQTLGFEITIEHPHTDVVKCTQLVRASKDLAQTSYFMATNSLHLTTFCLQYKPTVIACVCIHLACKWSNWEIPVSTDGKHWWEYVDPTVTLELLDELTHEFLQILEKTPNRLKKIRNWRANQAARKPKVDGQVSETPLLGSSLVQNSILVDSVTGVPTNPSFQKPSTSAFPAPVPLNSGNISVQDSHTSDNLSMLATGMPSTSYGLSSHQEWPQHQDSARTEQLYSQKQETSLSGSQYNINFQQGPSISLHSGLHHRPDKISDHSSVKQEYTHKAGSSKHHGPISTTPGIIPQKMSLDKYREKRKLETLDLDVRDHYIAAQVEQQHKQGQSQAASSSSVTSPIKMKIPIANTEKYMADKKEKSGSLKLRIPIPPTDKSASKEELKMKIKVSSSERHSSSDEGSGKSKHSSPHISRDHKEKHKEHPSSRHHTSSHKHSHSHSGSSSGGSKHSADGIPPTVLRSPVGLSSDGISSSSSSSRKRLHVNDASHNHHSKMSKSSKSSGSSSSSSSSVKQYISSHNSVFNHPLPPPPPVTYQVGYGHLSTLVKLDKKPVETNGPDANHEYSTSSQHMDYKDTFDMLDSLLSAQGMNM

Row | Compound | EC50 [2] [nM] | EC50 [4] [nM] | EC50 (Cytomegalovirus) [nM] | solubility kinetic [5] [µM] | solubility kinetic [6] [µM] | half-life at 1 µM [7] [min] | microsomal CLint at 1 µM [8] [µL/min/mg] | %max [10] [%] | CC50 at 48 h [11] [nM] | other results
1 | Cc1cc(OCCCC(=O)Nc2ncc(Cl)s2)ccc1Cl | 29000 | – | – | – | – | – | – | – | – | %max [1]: 39%; %max [3]: 15%
2 | Cc1ccc(N2CCN(C(=O)Nc3ncc(Cl)s3)CC2=O)cc1Cl | 2700 | 640 | 13000 | 1.6 (≈ 0.616 µg/mL) | 1.6 (≈ 0.616 µg/mL) | 60 | 29 | 38 | 42000 | %max [9]: 47%
3 | Clc1cnc2[nH]c(N3CCN(c4cnc(Cl)c(Cl)c4)CC3)nc2c1 | 24000 | 80 | 27000 | 25 (≈ 9.59 µg/mL) | 1.6 (≈ 0.614 µg/mL) | 13 | 132 | – | 40 | %max [12]: 57%; %max [13]: 28%
4 | N#Cc1cnc(NC(=O)N2CCN(c3cnc(Cl)c(Cl)c3)CC2)s1 | 1100 | 390 | 150 | < 1.6 | < 1.6 | 80 | 22 | – | 120 | %max [14]: 25%; %max [15]: 28%
5 | Cc1cc(NC2CCN(C(=O)Nc3ncc(Cl)s3)C2)ccc1Cl (stereo not given) | 3000 | 790 | 1800 | 6.3 (≈ 2.34 µg/mL) | 1.6 (≈ 0.594 µg/mL) | 11 | 151 | 20 | 680 | %max [16]: 39%
6 | N#Cc1cnc(NC(=O)N2CCN(c3ccc(Cl)c(Cl)c3)CC2)s1 | 1600 | 350 | 4400 | < 1.6 | < 1.6 | 117 | 15 | – | 410 | half-life at 1 µM [17]: 151 min; microsomal CLint at 1 µM [18]: 11 µL/min/mg; %max [19]: 87%; %max [20]: 30%
7 | Cc1ccc(N2CCN(C(=O)Nc3ncc(Cl)s3)CC2)cc1Cl | 1700 | 240 | 670 | < 1.6 | < 1.6 | 33 | 53 | – | 250 | %max [21]: 53%; %max [20]: 23%; inhibition [22]: 40%; inhibition (Cyclin-K (Homo sapiens)): 40%; inhibition (Cyclin-T1 (Homo sapiens)): 40%; inhibition (Cyclin-T2 (Homo sapiens)): 40%
8 | Clc1cnc2[nH]c(CCCOc3cnc(Cl)c(Cl)c3)nc2c1 | > 4000 | 6400 | 2400 | 12.5 (≈ 4.47 µg/mL) | 1.6 (≈ 0.572 µg/mL) | 14 | 122 | 11 | 1900 | %max [23]: 26%
9 | N#Cc1cccc(N2CCN(C(=O)Nc3ncc(Cl)s3)CC2)c1 | 480 | 610 | 500 | < 1.6 | < 1.6 | 46 | 38 | – | 50 | %max [9]: 22%; %max [15]: 28%
10 | O=C(Nc1ncc(Cl)s1)N1CCN(c2cnc(Cl)c(Cl)c2)CC1 | 290 | 80 | 70 | < 1.6 | < 1.6 | 55 | 32 | – | 40 | half-life at 1 µM [17]: 70 min; microsomal CLint at 1 µM [18]: 25 µL/min/mg; %max [23]: 65%; %max [24]: 26%; inhibition [22]: 60%; inhibition (Cyclin-K (Homo sapiens)): 60%; inhibition (Cyclin-T1 (Homo sapiens)): 60%; inhibition (Cyclin-T2 (Homo sapiens)): 60%
